One data set concerns glutathione (GSH). Kind of data set: Glutathione reactivity / stability against GSH. It counts as physicochemical. The following applies: glutathione (GSH) in PBS buffer, pH 7.4, 5 mM GSH, read-out: half-life (t1/2) against glutathione (converted). The method, then: A total of 5 µL of a 10 mM compound stock solution in DMSO were added to 5 µL of a 4 mM Indoprofen solution in PBS as internal standard. The mixture was diluted with PBS buffer to a total volume of 1 mL of component A. Additionally, a freshly prepared solution of 10 mM GSH in PBS buffer was used as component B. A total of 250 µL of each component was mixed and immediately subjected to HPLC analysis for t^0 measurement. The probes were stored at 40 °C in between the respective injections. t1/2 was determined by plotting natural logarithm of AUC/AUC0 against time.

The next data set concerns the target T1, BLK (Homo sapiens, UniProt P51451).
T1 construct: purchased Reaction Biology Corporation
Kind of data set: Radiometric kinase assay (Reaction Biology HotSpot). It counts as biochemical. The note with it: radiometric HotSpot, five-dose singlicate, [ATP] = 10 μM. Here is the method:
(§1) If not mentioned differently, in vitro profiling of compounds was performed at Reaction Biology Corporation using the HotSpot™ assay platform.

Another data set has as its target T2, EGFR (Homo sapiens, UniProt P00533).
T2 construct: purchased Reaction Biology Corporation
Described as above. It counts as biochemical. The following applies: radiometric HotSpot, five-dose singlicate, [ATP] = 10 μM. The method, then:
as §1

A further data set addresses T3, HER2 (Homo sapiens, UniProt P04626).
T3 construct: purchased Reaction Biology Corporation
The data set is described as above. The following applies: radiometric HotSpot, five-dose singlicate, [ATP] = 10 μM. The class given is biochemical. Here is the method: as §1

The next data set has as its target T4, HER4 (Homo sapiens, UniProt Q15303).
T4 construct: purchased Reaction Biology Corporation
The description is as above. The class given is biochemical. The note with it: radiometric HotSpot, five-dose singlicate, [ATP] = 10 μM. Here is the method: as §1

The next data set has as its target T5, ITK (Homo sapiens, UniProt Q08881).
T5 construct: purchased Reaction Biology Corporation
T5 sequence (Q08881 1-620): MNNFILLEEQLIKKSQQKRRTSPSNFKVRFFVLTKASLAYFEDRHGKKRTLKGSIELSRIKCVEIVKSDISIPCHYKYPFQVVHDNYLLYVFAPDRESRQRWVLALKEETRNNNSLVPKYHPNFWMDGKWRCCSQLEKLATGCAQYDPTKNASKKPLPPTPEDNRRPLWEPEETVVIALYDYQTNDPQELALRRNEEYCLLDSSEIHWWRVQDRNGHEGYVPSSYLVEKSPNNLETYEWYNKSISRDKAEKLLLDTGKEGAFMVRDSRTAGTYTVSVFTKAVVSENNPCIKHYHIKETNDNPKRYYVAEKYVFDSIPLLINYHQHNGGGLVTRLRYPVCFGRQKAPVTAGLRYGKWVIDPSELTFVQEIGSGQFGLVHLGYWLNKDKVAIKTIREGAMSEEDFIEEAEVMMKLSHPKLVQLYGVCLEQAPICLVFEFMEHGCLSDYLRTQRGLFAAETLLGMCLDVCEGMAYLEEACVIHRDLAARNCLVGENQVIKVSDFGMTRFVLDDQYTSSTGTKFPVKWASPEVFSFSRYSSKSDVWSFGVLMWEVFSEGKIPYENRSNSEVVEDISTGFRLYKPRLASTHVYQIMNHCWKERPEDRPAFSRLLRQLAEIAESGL
Described as above. The note with it: read-out: Residual Activity @ 200 nM, ITK. The class given is biochemical. The method, then:
as §1

Another data set has as its target T6, JAK3 (Homo sapiens, UniProt P52333).
T6 construct: purchased Reaction Biology Corporation
T6 sequence (P52333 1-1124): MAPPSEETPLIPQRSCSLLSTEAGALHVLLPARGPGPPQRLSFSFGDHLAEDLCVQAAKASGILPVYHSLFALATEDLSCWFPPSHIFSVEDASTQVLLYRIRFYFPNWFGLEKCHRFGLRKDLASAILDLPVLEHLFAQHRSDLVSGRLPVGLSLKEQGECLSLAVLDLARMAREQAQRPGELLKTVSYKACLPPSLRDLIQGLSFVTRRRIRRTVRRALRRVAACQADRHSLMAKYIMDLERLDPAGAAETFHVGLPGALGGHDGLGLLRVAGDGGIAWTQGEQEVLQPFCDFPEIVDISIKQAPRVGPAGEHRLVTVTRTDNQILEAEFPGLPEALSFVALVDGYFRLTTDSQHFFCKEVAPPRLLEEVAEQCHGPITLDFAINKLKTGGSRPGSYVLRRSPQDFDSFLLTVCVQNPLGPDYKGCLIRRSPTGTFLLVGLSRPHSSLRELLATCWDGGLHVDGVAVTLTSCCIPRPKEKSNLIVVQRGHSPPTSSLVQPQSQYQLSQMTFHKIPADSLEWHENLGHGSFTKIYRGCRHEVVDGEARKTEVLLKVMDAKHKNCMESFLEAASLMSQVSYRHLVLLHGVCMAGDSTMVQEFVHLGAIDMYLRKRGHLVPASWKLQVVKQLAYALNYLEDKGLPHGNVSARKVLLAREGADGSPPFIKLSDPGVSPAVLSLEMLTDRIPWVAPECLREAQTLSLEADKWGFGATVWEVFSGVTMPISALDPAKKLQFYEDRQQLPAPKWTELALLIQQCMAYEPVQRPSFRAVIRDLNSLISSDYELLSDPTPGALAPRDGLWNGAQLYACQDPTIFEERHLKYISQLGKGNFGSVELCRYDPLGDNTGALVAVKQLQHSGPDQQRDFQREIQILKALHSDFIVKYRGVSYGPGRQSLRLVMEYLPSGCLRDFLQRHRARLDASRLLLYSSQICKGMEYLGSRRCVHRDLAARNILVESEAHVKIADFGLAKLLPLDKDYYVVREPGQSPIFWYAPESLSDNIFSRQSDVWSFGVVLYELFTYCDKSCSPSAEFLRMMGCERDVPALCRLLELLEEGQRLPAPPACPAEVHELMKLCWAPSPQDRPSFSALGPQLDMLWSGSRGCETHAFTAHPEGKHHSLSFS
Described as above. The class given is biochemical. Here is the method: as §1

The target of a further data set is T7, MKK7 (Homo sapiens, UniProt O14733).
T7 construct: purchased Reaction Biology Corporation
T7 sequence (O14733 1-419): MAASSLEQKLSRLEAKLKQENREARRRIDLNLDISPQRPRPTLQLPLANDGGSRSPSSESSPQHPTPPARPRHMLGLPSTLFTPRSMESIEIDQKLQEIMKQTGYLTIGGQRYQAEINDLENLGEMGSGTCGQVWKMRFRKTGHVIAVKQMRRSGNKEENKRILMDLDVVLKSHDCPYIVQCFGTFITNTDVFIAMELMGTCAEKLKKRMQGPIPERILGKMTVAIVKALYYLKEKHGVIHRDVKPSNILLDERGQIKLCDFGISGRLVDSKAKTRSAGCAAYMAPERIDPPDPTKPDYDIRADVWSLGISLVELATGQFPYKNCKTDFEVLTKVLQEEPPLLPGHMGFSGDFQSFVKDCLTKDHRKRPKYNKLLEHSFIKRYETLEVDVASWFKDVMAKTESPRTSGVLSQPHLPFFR
The description is as above. It counts as biochemical. The following applies: read-out: Residual Activity @ 200 nM, MKK7. Here is the method: as §1

The next data set addresses T8, TEC (Homo sapiens, UniProt P42680).
T8 construct: purchased Reaction Biology Corporation
T8 sequence (P42680 1-631): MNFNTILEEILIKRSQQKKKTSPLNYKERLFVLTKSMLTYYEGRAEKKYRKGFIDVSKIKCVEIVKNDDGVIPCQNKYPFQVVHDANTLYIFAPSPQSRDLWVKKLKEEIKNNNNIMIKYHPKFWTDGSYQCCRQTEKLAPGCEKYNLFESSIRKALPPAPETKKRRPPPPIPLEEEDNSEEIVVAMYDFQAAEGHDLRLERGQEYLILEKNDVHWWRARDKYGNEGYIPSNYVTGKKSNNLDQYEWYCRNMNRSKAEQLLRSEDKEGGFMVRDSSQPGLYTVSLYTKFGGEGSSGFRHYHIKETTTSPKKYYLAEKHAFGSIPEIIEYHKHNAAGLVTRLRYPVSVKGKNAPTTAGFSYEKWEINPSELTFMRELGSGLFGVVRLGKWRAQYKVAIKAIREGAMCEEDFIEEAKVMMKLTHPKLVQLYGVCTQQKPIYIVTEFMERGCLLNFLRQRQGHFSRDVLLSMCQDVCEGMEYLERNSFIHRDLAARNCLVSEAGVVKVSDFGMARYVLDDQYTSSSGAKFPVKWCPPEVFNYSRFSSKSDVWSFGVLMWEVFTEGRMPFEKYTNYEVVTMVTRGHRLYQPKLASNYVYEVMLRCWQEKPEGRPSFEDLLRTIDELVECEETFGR
The data set is described as above. The class given is biochemical. The note with it: radiometric HotSpot, five-dose singlicate, [ATP] = 10 μM. Here is the method: as §1

The target of a further data set is T9, TXK (Homo sapiens, UniProt P42681).
T9 construct: purchased Reaction Biology Corporation
T9 sequence (P42681 1-527): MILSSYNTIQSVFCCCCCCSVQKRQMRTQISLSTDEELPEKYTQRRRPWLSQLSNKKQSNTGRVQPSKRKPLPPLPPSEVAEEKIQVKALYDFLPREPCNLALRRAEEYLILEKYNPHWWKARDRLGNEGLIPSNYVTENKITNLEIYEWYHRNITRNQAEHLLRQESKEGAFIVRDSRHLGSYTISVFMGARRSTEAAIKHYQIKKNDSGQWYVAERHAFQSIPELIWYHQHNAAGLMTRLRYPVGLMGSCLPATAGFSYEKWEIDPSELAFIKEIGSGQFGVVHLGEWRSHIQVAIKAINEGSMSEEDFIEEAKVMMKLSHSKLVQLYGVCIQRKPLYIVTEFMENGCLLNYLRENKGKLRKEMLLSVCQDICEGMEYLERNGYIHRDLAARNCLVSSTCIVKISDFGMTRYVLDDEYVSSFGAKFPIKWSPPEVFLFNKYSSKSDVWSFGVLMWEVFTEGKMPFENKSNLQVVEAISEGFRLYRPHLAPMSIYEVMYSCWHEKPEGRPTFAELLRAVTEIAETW
Described as above. The class given is biochemical. The following applies: radiometric HotSpot, five-dose singlicate, [ATP] = 10 μM. Here is the method: as §1

In another data set the target is T10, BMX (Homo sapiens, UniProt P51813).
T10 construct: purchased Reaction Biology Corporation
T10 sequence (P51813 1-675): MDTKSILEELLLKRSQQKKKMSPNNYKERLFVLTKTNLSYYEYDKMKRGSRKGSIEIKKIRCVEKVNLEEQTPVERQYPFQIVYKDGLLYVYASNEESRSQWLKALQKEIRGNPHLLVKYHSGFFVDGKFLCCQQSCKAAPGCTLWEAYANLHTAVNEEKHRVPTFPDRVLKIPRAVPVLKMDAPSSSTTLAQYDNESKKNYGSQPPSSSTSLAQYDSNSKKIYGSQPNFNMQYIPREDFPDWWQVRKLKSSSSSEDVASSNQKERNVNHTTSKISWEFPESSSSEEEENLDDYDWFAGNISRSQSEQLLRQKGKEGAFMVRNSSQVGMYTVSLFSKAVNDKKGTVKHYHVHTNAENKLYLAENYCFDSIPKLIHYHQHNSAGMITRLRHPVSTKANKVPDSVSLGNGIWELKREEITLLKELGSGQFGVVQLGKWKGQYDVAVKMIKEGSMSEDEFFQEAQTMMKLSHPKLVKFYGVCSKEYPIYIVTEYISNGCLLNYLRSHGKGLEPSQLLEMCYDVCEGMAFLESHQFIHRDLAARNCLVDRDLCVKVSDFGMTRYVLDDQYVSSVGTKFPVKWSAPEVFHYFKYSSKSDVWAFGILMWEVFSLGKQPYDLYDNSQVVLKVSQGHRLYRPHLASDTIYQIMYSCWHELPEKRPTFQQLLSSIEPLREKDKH
The following applies: cited from earlier work.

T1 sequence (P51451 whole entry): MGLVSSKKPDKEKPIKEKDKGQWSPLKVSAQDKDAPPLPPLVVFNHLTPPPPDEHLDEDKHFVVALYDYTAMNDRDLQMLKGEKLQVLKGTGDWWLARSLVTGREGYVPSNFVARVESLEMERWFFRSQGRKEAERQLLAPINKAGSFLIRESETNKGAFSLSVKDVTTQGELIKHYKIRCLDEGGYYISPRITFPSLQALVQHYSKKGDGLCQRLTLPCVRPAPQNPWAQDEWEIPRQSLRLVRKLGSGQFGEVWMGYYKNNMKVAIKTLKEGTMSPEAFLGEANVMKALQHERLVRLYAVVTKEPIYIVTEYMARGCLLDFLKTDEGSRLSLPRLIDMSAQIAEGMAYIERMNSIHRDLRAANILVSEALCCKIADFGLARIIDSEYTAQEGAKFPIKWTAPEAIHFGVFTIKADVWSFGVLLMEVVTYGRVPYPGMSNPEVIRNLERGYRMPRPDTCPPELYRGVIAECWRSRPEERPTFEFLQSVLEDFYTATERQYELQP
T3 sequence (P04626 23-1255): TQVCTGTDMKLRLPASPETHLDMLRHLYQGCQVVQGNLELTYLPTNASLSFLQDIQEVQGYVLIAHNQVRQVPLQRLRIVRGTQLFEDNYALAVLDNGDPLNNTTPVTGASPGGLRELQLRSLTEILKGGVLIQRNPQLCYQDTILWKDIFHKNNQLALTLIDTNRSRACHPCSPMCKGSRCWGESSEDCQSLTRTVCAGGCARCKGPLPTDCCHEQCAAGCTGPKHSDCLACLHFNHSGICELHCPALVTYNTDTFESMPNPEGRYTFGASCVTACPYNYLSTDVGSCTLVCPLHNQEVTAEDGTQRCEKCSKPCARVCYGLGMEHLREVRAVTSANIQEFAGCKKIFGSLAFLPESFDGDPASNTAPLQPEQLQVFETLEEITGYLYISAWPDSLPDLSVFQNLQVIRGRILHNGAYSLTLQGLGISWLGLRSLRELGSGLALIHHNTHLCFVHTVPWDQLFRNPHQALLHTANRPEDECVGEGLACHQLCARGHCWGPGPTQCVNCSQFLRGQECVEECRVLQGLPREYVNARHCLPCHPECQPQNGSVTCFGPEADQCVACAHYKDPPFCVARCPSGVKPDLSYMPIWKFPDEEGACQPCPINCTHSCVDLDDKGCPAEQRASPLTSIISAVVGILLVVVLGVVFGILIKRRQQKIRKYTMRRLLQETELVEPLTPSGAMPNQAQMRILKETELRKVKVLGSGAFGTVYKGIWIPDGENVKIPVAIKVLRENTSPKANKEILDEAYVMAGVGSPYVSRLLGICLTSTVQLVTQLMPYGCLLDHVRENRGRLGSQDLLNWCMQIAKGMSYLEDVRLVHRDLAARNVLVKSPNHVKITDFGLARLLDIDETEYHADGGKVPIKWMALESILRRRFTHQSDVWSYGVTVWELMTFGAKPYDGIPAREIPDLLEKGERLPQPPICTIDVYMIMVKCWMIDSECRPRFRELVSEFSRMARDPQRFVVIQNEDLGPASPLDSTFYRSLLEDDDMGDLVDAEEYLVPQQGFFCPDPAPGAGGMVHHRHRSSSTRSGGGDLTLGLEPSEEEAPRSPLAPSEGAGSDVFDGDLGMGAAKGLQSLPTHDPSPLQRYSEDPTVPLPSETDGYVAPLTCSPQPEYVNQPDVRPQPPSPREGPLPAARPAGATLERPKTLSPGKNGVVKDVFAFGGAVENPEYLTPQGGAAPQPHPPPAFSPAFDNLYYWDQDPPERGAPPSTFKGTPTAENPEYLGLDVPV
T4 sequence (Q15303 26-1308): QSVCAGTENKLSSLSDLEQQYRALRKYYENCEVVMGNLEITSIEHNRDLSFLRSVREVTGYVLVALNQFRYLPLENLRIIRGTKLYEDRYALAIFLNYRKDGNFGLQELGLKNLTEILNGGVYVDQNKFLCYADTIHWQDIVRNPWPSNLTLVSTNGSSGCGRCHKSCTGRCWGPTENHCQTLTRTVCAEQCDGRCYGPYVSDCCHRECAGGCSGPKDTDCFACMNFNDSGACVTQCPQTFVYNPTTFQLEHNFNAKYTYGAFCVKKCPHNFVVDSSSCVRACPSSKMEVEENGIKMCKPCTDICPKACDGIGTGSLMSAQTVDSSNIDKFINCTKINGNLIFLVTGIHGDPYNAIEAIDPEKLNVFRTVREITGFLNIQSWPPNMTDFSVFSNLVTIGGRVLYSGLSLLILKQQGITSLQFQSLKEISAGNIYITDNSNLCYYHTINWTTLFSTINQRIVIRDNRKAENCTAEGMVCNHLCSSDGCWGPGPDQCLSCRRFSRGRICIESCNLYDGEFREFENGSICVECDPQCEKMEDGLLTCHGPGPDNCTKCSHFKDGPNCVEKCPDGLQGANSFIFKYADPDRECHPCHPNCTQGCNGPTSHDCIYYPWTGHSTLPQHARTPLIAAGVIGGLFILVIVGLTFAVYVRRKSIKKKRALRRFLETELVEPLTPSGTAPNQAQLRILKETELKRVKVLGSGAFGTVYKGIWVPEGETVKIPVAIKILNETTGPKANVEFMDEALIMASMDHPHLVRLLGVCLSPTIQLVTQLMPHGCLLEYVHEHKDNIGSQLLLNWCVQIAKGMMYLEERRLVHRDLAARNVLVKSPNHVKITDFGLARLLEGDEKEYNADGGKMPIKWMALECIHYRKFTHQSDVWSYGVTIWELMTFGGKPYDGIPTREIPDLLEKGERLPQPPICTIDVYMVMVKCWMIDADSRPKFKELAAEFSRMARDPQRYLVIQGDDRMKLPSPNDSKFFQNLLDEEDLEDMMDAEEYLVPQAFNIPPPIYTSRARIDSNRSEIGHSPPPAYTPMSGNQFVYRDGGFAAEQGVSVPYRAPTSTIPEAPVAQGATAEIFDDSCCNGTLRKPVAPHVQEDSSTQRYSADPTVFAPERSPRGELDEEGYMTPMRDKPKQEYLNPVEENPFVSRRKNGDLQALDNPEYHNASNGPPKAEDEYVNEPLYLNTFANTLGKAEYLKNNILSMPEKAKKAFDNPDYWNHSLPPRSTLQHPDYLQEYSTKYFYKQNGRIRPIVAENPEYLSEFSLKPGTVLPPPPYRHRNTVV
T2 sequence (P00533 25-1210): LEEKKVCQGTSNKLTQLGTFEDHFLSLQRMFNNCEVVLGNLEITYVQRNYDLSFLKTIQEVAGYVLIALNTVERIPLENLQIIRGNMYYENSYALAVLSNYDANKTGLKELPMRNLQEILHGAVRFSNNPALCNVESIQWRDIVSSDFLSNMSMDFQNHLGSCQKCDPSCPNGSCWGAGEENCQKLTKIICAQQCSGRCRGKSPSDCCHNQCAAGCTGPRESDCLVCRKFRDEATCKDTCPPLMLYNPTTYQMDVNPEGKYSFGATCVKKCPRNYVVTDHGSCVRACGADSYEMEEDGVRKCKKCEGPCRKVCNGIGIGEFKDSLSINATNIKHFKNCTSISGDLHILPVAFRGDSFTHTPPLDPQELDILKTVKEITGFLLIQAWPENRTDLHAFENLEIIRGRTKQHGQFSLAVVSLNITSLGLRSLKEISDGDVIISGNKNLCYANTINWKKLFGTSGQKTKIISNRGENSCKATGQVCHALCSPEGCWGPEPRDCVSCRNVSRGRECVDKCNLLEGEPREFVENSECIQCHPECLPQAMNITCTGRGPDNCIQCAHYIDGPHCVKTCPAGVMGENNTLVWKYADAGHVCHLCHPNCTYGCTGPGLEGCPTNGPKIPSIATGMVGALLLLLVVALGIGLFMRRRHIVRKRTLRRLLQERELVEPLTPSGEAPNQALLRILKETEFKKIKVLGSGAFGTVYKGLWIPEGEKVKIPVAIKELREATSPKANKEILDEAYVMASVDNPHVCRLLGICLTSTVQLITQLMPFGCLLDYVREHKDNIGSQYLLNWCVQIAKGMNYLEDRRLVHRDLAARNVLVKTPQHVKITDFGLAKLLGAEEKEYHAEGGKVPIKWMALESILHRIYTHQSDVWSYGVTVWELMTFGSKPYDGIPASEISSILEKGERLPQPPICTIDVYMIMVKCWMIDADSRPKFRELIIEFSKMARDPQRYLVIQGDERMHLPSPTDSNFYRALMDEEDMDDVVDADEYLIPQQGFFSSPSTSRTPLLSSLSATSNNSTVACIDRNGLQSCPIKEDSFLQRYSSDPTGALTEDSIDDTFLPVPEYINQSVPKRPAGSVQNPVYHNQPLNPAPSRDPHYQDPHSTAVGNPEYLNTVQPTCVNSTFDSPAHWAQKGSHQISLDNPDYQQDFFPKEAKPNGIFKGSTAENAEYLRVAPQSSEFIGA

Regarding `CN(C)C/C=C/C(=O)Nc1cc2c(Nc3ccc(F)c(Cl)c3)ncnc2cc1O[C@H]1CCOC1` [Afatinib, reference compound], the half-life at 25 µM in the data set on glutathione (GSH) is 45.6 min.

For orientation: IC50 means the concentration at which inhibition is half-maximal. Read a high IC50 as weaker potency. Turning to `C=CC(=O)Nc1cccc(-c2c[nH]c3ncc(NC(=O)C4CCCC4)cc23)c1` [Compound 12a, N-(3-(3-acrylamidophenyl)-1H-pyrrolo[2,3-b]pyridin-5-yl)cyclopentanecarboxamide], the IC50 at BLK is 52 nM; at EGFR, 158 nM; against HER2, 612 nM; against HER4 it was 106 nM; against JAK3 (radiometric HotSpot, five-dose singlicate, [ATP] = 10 μM) it was 1340 nM; on TEC, 31 nM. On TXK, this molecule had an IC50 of 13 nM. Besides, the remaining activity at 0.2 µM was found to be 98.5% at ITK; 94.5% on JAK3 (read-out: Residual Activity @ 200 nM, JAK3); 100% on MKK7.

As to `C=CC(=O)Nc1cc(C)cc(-n2c(=O)ccc3cnc4cc(-c5ccc(NS(C)(=O)=O)cc5)ccc4c32)c1` [JS25], the “kinact/KI BMX” value on BMX is 1.9e+07 M⁻¹ s⁻¹.
